What was measured:
ERα = target: T1, ERα (Homo sapiens, UniProt P03372); experiment: fluorescence polarization competition against a fluorescent ligand; assay type: binding
T1 construct: gene ESR1
T1 sequence (P03372 1-595): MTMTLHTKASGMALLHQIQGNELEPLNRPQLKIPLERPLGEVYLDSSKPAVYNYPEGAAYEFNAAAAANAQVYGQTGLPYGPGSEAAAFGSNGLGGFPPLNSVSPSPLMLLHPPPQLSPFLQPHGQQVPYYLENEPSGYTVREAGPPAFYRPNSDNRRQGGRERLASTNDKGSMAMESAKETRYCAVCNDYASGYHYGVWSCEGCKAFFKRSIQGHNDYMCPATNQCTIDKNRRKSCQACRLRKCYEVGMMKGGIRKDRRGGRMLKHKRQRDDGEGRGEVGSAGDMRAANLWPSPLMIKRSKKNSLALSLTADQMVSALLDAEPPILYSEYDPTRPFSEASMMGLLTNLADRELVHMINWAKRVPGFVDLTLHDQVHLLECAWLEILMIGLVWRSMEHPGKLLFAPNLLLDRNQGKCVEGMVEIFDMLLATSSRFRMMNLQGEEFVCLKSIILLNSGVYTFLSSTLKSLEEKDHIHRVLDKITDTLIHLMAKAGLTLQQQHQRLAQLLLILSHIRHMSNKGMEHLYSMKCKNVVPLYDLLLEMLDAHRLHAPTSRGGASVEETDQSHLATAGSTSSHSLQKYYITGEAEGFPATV

ERβ = target: T2, ERβ (Homo sapiens, UniProt Q92731); experiment: as above; assay type: binding
T2 construct: gene ESR2
T2 sequence (Q92731 whole entry): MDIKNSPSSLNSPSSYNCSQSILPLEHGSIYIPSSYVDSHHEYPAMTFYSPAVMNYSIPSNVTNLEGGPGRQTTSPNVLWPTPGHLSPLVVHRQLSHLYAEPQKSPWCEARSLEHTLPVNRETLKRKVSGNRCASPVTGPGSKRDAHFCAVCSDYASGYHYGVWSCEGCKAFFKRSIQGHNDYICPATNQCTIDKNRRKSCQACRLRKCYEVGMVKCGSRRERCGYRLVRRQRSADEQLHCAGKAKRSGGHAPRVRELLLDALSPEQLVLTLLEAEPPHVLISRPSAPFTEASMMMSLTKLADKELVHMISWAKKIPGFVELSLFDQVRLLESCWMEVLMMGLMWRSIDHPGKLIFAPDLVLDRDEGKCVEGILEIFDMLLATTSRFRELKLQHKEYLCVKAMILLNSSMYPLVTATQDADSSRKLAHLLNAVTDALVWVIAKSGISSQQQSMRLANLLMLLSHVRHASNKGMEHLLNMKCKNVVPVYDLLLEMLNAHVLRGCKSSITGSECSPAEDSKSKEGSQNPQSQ

in vitro = experiment: in vitro; parameters: CCK-8 cell viability assay, absorbance at 450 nm; details: human, mcf-10a cells; read-out: MCF-10A (IC50)
Method: Normal breast cells MCF-10A and prostate cancer cells DU-145 (purchased from ATCC, Rockville, MD, USA), breast cancer cells MCF-7 (purchased from the Type Culture Collection of the Chinese Academy of Sciences, Shanghai, China) were cultured in a phenol red DMEM [compound left out] medium supplemented with 10% fetal bovine serum. When the cell density reached 80% to 90%, the cells were digested, and the cell suspension was spread into 96-well cell culture plates with a phenol red-free DMEM medium containing 10% CS. After the cells were completely adherent, the original culture medium was discarded, and 100 μL of fresh compound solution prepared with the DMEM medium containing 10% CS were added to each well. The concentration gradient of the compound is: 1 × 10^−7.5 M, 1 × 10^−7 M, 1 × 10^−6.5 M, 1 × 10^−6 M, 1 × 10^−5.5 M, 1 × 10^−5 M, 1 × 10^−4.5 M, 1 × 10^−4 M. After 4 days of drug-treated culture, the culture plate was removed, the culture medium was aspirated, 100 μL CCK-8 working solution was added to each well and incubated for 1.5–2 h at 37 °C in a 5% CO2 incubator. The plate was read on the microplate reader, the wavelength at 450 nm was selected as the reference wavelength, the experimental results were analyzed, and the IC50 was calculated. […]

DU-145 = experiment: cells; parameters: CCK-8 cell viability assay, absorbance at 450 nm; details: Homo sapiens, DU-145, 96 h
Method: (§1) Normal breast cells MCF-10A and prostate cancer cells DU-145 (purchased from ATCC, Rockville, MD, USA), breast cancer cells MCF-7 (purchased from the Type Culture Collection of the Chinese Academy of Sciences, Shanghai, China) were cultured in a phenol red DMEM [compound left out] medium supplemented with 10% fetal bovine serum. When the cell density reached 80% to 90%, the cells were digested, and the cell suspension was spread into 96-well cell culture plates with a phenol red-free DMEM medium containing 10% CS. After the cells were completely adherent, the original culture medium was discarded, and 100 μL of fresh compound solution prepared with the DMEM medium containing 10% CS were added to each well. The concentration gradient of the compound is: 1 × 10^−7.5 M, 1 × 10^−7 M, 1 × 10^−6.5 M, 1 × 10^−6 M, 1 × 10^−5.5 M, 1 × 10^−5 M, 1 × 10^−4.5 M, 1 × 10^−4 M. After 4 days of drug-treated culture, the culture plate was removed, the culture medium was aspirated, 100 μL CCK-8 working solution was added to each well and incubated for 1.5–2 h at 37 °C in a 5% CO2 incubator. The plate was read on the microplate reader, the wavelength at 450 nm was selected as the reference wavelength, the experimental results were analyzed, and the IC50 was calculated. To investigate the toxicity of P1 and P2 on normal cells and their inhibitory activity on cancer cells before performing cellular imaging, we tested the effects of P1 and P2 on MCF-10A normal breast cells, MCF-7 breast cancer cells with high ERα expression, and DU-145 prostate cancer cells with high ERβ expression by using CCK-8 assays (Table S1). […] However, P1 was not toxic to any of these three cell lines.

MCF-7 = experiment: cells; parameters: CCK-8 cell viability assay, absorbance at 450 nm; details: Homo sapiens, MCF7, 96 h
Method: as §1

| Compound | Ki (ERα) | Ki (ERβ) | CC50 at 96 h (in vitro) | IC50 (DU-145) | IC50 (MCF-7) |
| --- | --- | --- | --- | --- | --- |
| CC1(C)OB(c2ccc(/C=C/C3=CC(=C(C#N)C#N)c4cc(O)ccc4O3)cc2)OC1(C)C [P1, (E)-2-(6-Hydroxy-2-(4-(4,4,5,5-tetramethyl-1,3,2-dioxaborolan-2-yl)styryl)-4H-chromen-4-ylidene)malononitrile] | 4.36 ± 0.01 µM | 1.42 ± 0.02 µM | > 100 µM | > 100 µM | > 100 µM |
| C=CS(=O)(=O)Oc1ccc2c(c1)C(=C(C#N)C#N)C=C(/C=C/c1ccc(B3OC(C)(C)C(C)(C)O3)cc1)O2 [P2, (E)-4-(Dicyanomethylene)-2-(4-(4,4,5,5-tetramethyl-1,3,2-dioxaborolan-2-yl)styryl)-4H-chromen-6-yl ethenesulfonate] | 8.73 ± 0.01 µM | 1.21 ± 0.03 µM | > 100 µM | > 100 µM | 16.3 ± 4.42 µM |

From article PMC10005547, “Development of Highly Efficient Estrogen Receptor β-Targeted Near-Infrared Fluorescence Probes Triggered by Endogenous Hydrogen Peroxide for Diagnostic Imaging of Prostate Cancer” (Molecules, 2023)
